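1) Cells in 96-well plates. 2) Compound, 48 h, 5 concentrations. 3) Linear interpolation between surrounding doses. 4) Unreached endpoint = highest concentration. At the GI50, growth is halved. TGI: concentration producing complete growth inhibition.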
Assays:
Assay in all cases: DTP human tumour cell line panel, 48 h
SK-MEL-5 melanoma = tested on: SK-MEL-5 melanoma
PC-3 prostate = tested on: PC-3 prostate
UACC-62 melanoma = tested on: UACC-62 melanoma
NCI-H460 lung = tested on: NCI-H460 lung
MDA-MB-435 = tested on: MDA-MB-435
OVCAR-3 ovarian = tested on: OVCAR-3 ovarian
OVCAR-4 ovarian = tested on: OVCAR-4 ovarian
M14 melanoma = tested on: M14 melanoma
UO-31 renal = tested on: UO-31 renal
SK-OV-3 ovarian = tested on: SK-OV-3 ovarian

Compound | GI50 (SK-MEL-5 melanoma) | TGI (SK-MEL-5 melanoma) | GI50 (PC-3 prostate) | TGI (PC-3 prostate) | GI50 (UACC-62 melanoma) | TGI (UACC-62 melanoma) | GI50 (NCI-H460 lung) | TGI (NCI-H460 lung) | GI50 (MDA-MB-435) | TGI (MDA-MB-435) | GI50 (OVCAR-3 ovarian) | TGI (OVCAR-3 ovarian) | GI50 (OVCAR-4 ovarian) | TGI (OVCAR-4 ovarian) | GI50 (M14 melanoma) | TGI (M14 melanoma) | GI50 (UO-31 renal) | TGI (UO-31 renal) | GI50 (SK-OV-3 ovarian) | TGI (SK-OV-3 ovarian)
CCn1c(-c2nonc2N)nc2c(N3CCCC3)nccc21 | 19 µM | > 25 µM | 14.4 µM | > 25 µM | 16.2 µM | > 25 µM | 8.95 µM | > 25 µM | 12.2 µM | > 25 µM | 14.7 µM | > 25 µM | 10.3 µM | > 25 µM | 24.5 µM | > 25 µM | 7.48 µM | > 25 µM | > 24 µM | > 25 µM
C[C@@H]1CC[C@@]2(NC1)O[C@H]1C[C@H]3[C@@H]4CC[C@H]5C[C@@H](O)CC[C@]5(C)[C@H]4CC[C@]3(C)[C@H]1[C@@H]2C | – | > 100 µM | – | > 100 µM | – | > 100 µM | – | > 100 µM | – | > 100 µM | – | > 100 µM | – | 71.7 µM | – | > 100 µM | – | > 100 µM | – | > 100 µM
O=C[C@@H](CO)O[C@H](C=O)n1cnc2c(=O)[nH]cnc21 | – | 1150 µM | – | 1780 µM | – | 1670 µM | – | 2130 µM | – | 2300 µM | – | 1410 µM | – | 1150 µM | – | 1860 µM | – | 1420 µM | – | 1630 µM
O=P(O)(O)OCC1OC(n2cnc3c(NCc4ccccc4)ncnc32)C(O)C1O (stereo not given) | 17 µM | > 100 µM | 1.2 µM | > 36.2 µM | 5.02 µM | > 100 µM | 10.6 µM | > 59.3 µM | 3.23 µM | > 100 µM | 0.691 µM | 2.16 µM | 0.642 µM | 33.1 µM | 2.68 µM | > 100 µM | 3.38 µM | 32.4 µM | 2.73 µM | 11.1 µM
CC1=NOC(=O)/C1=C/c1ccc2c(c1)OCO2 | – | > 100 µM | – | 48.5 µM | – | 43.5 µM | – | > 100 µM | – | 56.6 µM | – | 98.9 µM | – | > 100 µM | – | > 100 µM | – | 38.9 µM | – | > 100 µM
CC1SC(c2ccc(Cl)cc2Cl)N(NC(=O)C(O)c2ccccc2)C1=O (stereo not given) | 58.6 µM | > 100 µM | 42.3 µM | > 100 µM | 24.2 µM | > 100 µM | 47.7 µM | > 100 µM | 74.7 µM | > 100 µM | 28.7 µM | > 100 µM | 28.5 µM | 98.5 µM | 42.9 µM | > 100 µM | 48.9 µM | > 100 µM | > 100 µM | > 100 µM
CC(SCc1ccccc1)C(=O)O (stereo not given) | – | > 100 µM | – | > 100 µM | – | > 100 µM | – | > 100 µM | – | > 100 µM | – | > 100 µM | – | > 100 µM | – | > 100 µM | – | > 100 µM | – | > 100 µM
COc1ccc2[nH]c(C(=O)OCc3ccc4c(Cl)cc(Cl)c(O)c4n3)cc2c1 | 1.65 µM | 3.02 µM | 0.99 µM | 2.57 µM | 1.33 µM | 2.61 µM | 1.75 µM | 3.45 µM | 1.13 µM | 2.45 µM | 0.513 µM | 1.83 µM | 1.49 µM | 2.92 µM | 1.44 µM | 2.91 µM | 0.378 µM | 1.96 µM | 4.06 µM | 17.7 µM
CC1(C)CCC[C@]2(C)c3ccccc3C(=O)CC12 (stereo not given in full) | 18 µM | 46.4 µM | 42 µM | > 100 µM | 18.2 µM | > 100 µM | 34.9 µM | > 100 µM | 22.9 µM | > 100 µM | 41.2 µM | > 100 µM | > 100 µM | > 100 µM | 38.6 µM | > 100 µM | 53.1 µM | > 100 µM | > 100 µM | > 100 µM
CC(C)c1ccc(NC(=O)Cc2ccc(Nc3ncnc4cc(-c5cnn(CCN(C)C)c5)ccc34)cc2)cc1 | > 10 µM | > 10 µM | 1.31 µM | 2.92 µM | > 10 µM | > 10 µM | 0.19 µM | 2.33 µM | 2.34 µM | > 10 µM | 1.44 µM | 2.94 µM | 1.51 µM | 3.05 µM | 1.28 µM | 2.97 µM | 3.02 µM | > 10 µM | 1.61 µM | 4.81 µM
COc1cc2nccc(Oc3ccc(NC(=O)c4cn(C(C)C)c(=O)n(-c5ccc(F)cc5)c4=O)cc3F)c2cc1OC | > 100 µM | > 100 µM | 6.28 µM | > 100 µM | 6.03 µM | > 100 µM | 4.98 µM | > 100 µM | > 100 µM | > 100 µM | > 41.4 µM | > 100 µM | > 20.8 µM | > 100 µM | 63.3 µM | > 100 µM | 3.65 µM | > 40 µM | > 100 µM | > 100 µM
COc1cc(NCCCCCN=C(N)NC(N)=NC(C)C)c2ncccc2c1 | 1.44 µM | 3.01 µM | 0.972 µM | 13.8 µM | 2.69 µM | 8.96 µM | 4.49 µM | 18.1 µM | 3.61 µM | 14.7 µM | 0.217 µM | 0.759 µM | 0.0363 µM | 0.633 µM | 6.12 µM | 20.1 µM | 27.1 µM | > 100 µM | 10.9 µM | 23.5 µM
COc1cc2c3c(n(CCCNCCCN)c(=O)c2cc1OC)-c1cc2c(cc1C3=O)OCO2 | 5.35 µM | 19 µM | 3.53 µM | 14.6 µM | 3.41 µM | 15.5 µM | 4.07 µM | 18 µM | 2.53 µM | 13.5 µM | 3.08 µM | 11.7 µM | 2.83 µM | 16.7 µM | 4.65 µM | 16.7 µM | 15.4 µM | 38.5 µM | 11.2 µM | 92.9 µM
C[N+](C)=c1ccc2nc3c(cc(NCCCNc4cc5oc6cc(=[N+](C)C)ccc-6nc5c5ccccc45)c4ccccc43)oc-2c1 | 1.41 µM | 2.79 µM | 1.2 µM | 5.64 µM | 2.3 µM | 6.88 µM | 1.89 µM | 4.06 µM | 1.76 µM | 3.29 µM | 0.341 µM | 2.33 µM | 0.715 µM | 2.08 µM | 1.63 µM | 3.18 µM | 1.75 µM | 14 µM | 18.7 µM | 42.3 µM
